System: head, forehead and neck
Test: Half-head wash with ethyl nicotinate shampoo against placebo shampoo (erythema meter, Cyclops pyrometer, sensations)
Format: in vivo, human
Description: EXPERIMENTS WITH ETHYL NICOTINATE ESTER IN SHAMPOO Five subjects washed one side of the head, forehead and neck with a shampoo the same as in Example 5 but containing a varying level of ethyl nicotinate for a period ranging from one to five minutes, whilst the other side was washed with a placebo shampoo of corresponding composition. The changes occurring on the various symmetrical sites around the head were assessed with the erythema meter and a "Cyclops" pyrometer in sequence. The readings were continued for between 45 minutes and one hour.

CCOC(=O)c1cccnc1 [EtNic, ethyl nicotinate]
temperature (active sites against placebo sites, Cyclops pyrometer, wash of one to five minutes): either rose or did not fall so low as the placebo sites | redness (active sites against placebo sites, erythema meter, wash of one to five minutes): increased the redness | longer term sensations of a pleasant nature, duration after treatment (crown of the head): up to two

From EP0489581A2, “Cosmetic composition” (UNILEVER PLC, priority 1990, dated 1992)
